Data taken from US9650408B2, “Therapeutic agent for hypertension” (SRI INTERNATIONAL, priority 2005, dated 2017).

Assays:
[1] = test system: estrogen receptor (ER); conditions: cited from earlier work
[2] = test system: postmenopausal breast cancer patients; assay: Blood pressure in postmenopausal breast cancer patients given oral TAS-108; type: in vivo, human
Description: TAS-108 (40 mg, 80 mg, or 120 mg) was orally administered to postmenopausal breast cancer patients (age: 50 to 78) once a day after breakfast for up to eight weeks. Blood pressure was measured in a sitting position before administration on the day of initiation of administration, and two weeks, four weeks, and eight weeks after initiation of administration.

[3] = test system: spontaneously hypertensive rats (SHRs); assay: Blood pressure and heart rate in spontaneously hypertensive rats, tail-cuff method; type: in vivo, rat; conditions: 100 mg once a day for seven days; for change in heart rate: FIG. 6 (TAS-108), FIG. 7 (raloxifene)
Description: TAS-108 (100 mg) was administered to nine-week-old spontaneously hypertensive rats (SHRs) once a day for consecutive seven days. Before final administration of the test drug, and 30 minutes, one hour, two hours, and four hours after the final administration, blood pressure was measured in a state where heart rate is constant by means of an […] automatic rat/mouse blood pressure measuring apparatus (BP-97A, product of Softron) according to the tail-cuff method (J. Lab. Clin. Med. 1971; 78: 957-962). For comparison, a solvent (0.5% HPMC) or raloxifene, serving as a control drug, was administered in a dose of 100 mg once a day for consecutive seven days.
Percent increase/decrease in blood pressure after final administration of the test drug was obtained on the basis of the blood pressure as measured before final administration of the drug, and the thus-obtained values were compared with one another.

[4] = biological target: T1, estrogen receptor α (Homo sapiens, UniProt P03372); conditions: cited from earlier work
T1 sequence (P03372 1-595): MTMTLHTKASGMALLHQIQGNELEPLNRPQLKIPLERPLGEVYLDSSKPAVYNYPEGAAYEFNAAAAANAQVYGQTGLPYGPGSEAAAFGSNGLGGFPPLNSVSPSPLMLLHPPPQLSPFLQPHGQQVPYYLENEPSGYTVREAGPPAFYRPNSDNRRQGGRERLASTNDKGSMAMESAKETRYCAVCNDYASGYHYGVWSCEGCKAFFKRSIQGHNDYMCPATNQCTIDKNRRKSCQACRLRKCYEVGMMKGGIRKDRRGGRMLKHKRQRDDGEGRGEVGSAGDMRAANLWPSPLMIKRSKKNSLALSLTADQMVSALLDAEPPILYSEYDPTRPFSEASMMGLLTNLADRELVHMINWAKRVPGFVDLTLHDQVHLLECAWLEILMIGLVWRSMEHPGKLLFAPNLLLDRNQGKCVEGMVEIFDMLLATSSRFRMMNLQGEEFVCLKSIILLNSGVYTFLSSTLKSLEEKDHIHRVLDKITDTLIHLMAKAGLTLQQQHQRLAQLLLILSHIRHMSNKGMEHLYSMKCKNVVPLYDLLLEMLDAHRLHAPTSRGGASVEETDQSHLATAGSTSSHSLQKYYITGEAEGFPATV

[5] = test system: postmenopausal hypertensive patients; conditions: 142±13 mmHg before; cited from earlier work
[6] = SHR, relative to pressure before final administration, FIG. 5
[7] = SHR, during the course of measurement, FIG. 7

| SMILES | affinity to estrogen receptor (ER) [1] | systolic or diastolic blood pressure ([2]; four hypertensive patients (systolic 140 mmHg or higher or diastolic 90 mmHg or higher), 40, 80 or 120 mg orally once a day, two to four weeks after initiation, FIGS. 1 to 3) | change in blood pressure ([2]; remaining 11 breast cancer patients with normal blood pressure, during the course of administration, FIG. 4) | reduction of systolic blood pressure ([2]; typical hypertensive patient (FIG. 2), four weeks after initiation of administration) | systolic blood pressure after administration ([2]; typical hypertensive patient (FIG. 2), four weeks after initiation, 180 mmHg before administration) | change in heart rate ([3]; SHR) | time of maximum percent decrease in blood pressure ([3]; SHR, after final administration, FIG. 5) | reduction of diastolic blood pressure [3, 6] | reduction of mean blood pressure [3, 6] | blood pressure ([3]; all SHRs, one to two hours after final administration) | agonistic effect on estrogen receptor α [4] | antagonistic effect on estrogen receptor α [4] | change in diastolic blood pressure [3, 7] | change in mean blood pressure [3, 7] | change in systolic blood pressure [3, 7] | systolic blood pressure after administration [5] |
| --- | --- | --- | --- | --- | --- | --- | --- | --- | --- | --- | --- | --- | --- | --- | --- | --- |
| CCN(CC)Cc1ccc(OCC[C@H]2CCC3C4C(CC[C@@]32C)c2ccc(O)cc2C[C@H]4C)c(OC)c1 (stereo partly drawn) [TAS-108, (7α)-21-[4-[(Diethylamino)methyl]-2-methoxyphenoxy]-7-methyl-19-norpregna-1,3,5(10)-trien-3-ol] | strong affinity | reduced to fall within a normal pressure range | no considerable change in blood pressure | about 40 mmHg | 138 mmHg | No considerable change in heart rate | two hours after administration | 46.9% | 28.6% | blood pressure was reduced | virtually no agonistic effect | potent antagonistic effect |  |  |  |  |
| O=C(c1ccc(OCCN2CCCCC2)cc1)c1c(-c2ccc(O)cc2)sc2cc(O)ccc12 [raloxifene, reference compound] |  |  |  |  |  | no considerable change |  |  |  |  |  |  | no considerable change | no considerable change | no considerable change | 139±10 mmHg |
